How the values were obtained:
[1] = tested on: DG-75 (Burkitt's Lymphoma); test: combination Emax (second highest fraction inhibited in the dose matrix, 72 h); higher = more inhibition; extreme values may be limits of the assay
Summary of the method: (§1)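 After 24 hours at 37°C and 5% CO2 in 1536-well plates, cells in DMEM/F12 or RPMI plus 10% FBS received two-drug dose matrices for 72 hours. Viability came from CellTiter-Glo 2.0 luminescence and was scaled as inhibition, anchored at 0 by vehicle wells and at 1 by blank wells. Combination Emax is taken as the second-highest inhibition in the matrix, and Bliss excess as the observed combination effect less EA + EB − EA·EB, with EA and EB the single-agent effects.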

IMR-5 (Neuroblastoma) = test: as above
Summary of the method: as §1

[2] = tested on: HuP-T3 (Pancreatic Carcinoma); test: as above
Summary of the method: as §1

[3] = tested on: VMRC-LCD (Lung Adenocarcinoma); test: as above
Summary of the method: as §1

[4] = tested on: NCI-H513 (Other Solid Carcinomas); test: as above
Summary of the method: as §1

NB7 (Neuroblastoma) [5] = test: as above
Summary of the method: as §1

GOTO (Neuroblastoma) [6] = test: as above
Summary of the method: as §1

[7] = tested on: KYSE-50 (Esophageal Squamous Cell Carcinoma); test: as above
Summary of the method: as §1

[8] = tested on: MFE-319 (Endometrial Carcinoma); test: as above
Summary of the method: as §1

[9] = tested on: OCUM-1 (Gastric Carcinoma); test: as above
Summary of the method: as §1

[10] = tested on: TGBC11TKB (Gastric Carcinoma); test: as above
Summary of the method: as §1

[11] = tested on: NCI-H2405 (Lung Adenocarcinoma); test: as above
Summary of the method: as §1

EW-13 (Ewing's Sarcoma) = test: as above
Summary of the method: as §1

A704 (Kidney Carcinoma) = test: Bliss excess, mean over the matrix (fraction); higher = more synergy
Summary of the method: as §1

[12] = tested on: PFSK-1 (Other Solid Carcinomas); test: as above
Summary of the method: as §1

[13] = tested on: VMRC-LCD (Lung Adenocarcinoma); test: as above
Summary of the method: as §1

[14] = tested on: EMC-BAC-2 (Non-Small Cell Lung Carcinoma); test: as above
Summary of the method: as §1

NB7 (Neuroblastoma) [15] = test: as above
Summary of the method: as §1

GOTO (Neuroblastoma) [16] = test: as above
Summary of the method: as §1

[17] = tested on: KYSE-50 (Esophageal Squamous Cell Carcinoma); test: as above
Summary of the method: as §1
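For Bliss excess, mean over the matrix in this document: after 72 h of two-drug dosing.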

| Structure (SMILES) | combination Emax [1] | combination Emax (IMR-5 (Neuroblastoma)) | combination Emax [2] | combination Emax [3] | combination Emax [4] | combination Emax (NB7 (Neuroblastoma) [5]) | combination Emax (GOTO (Neuroblastoma) [6]) | combination Emax [7] | combination Emax [8] | combination Emax [9] | combination Emax [10] | combination Emax [11] | combination Emax (EW-13 (Ewing's Sarcoma)) | Bliss excess (A704 (Kidney Carcinoma)) | Bliss excess [12] | Bliss excess [13] | Bliss excess [14] | Bliss excess (NB7 (Neuroblastoma) [15]) | Bliss excess (GOTO (Neuroblastoma) [16]) | Bliss excess [17] |
| --- | --- | --- | --- | --- | --- | --- | --- | --- | --- | --- | --- | --- | --- | --- | --- | --- | --- | --- | --- | --- |
| Cc1c2c(nn1C)CSCc1cc(n(C)n1)CSc1cc(c3ccccc3c1)OCCCc1c(C(=O)O)n(C)c3c-2c(Cl)ccc13 [AZD5991] + CCN(CCO)CCCOc1ccc2c(Nc3cc(CC(=O)Nc4cccc(F)c4)[nH]n3)ncnc2c1 [AZD2811] (first compound max 1 µM, 7x7, partner max 1 µM) | 0.229 | 1 | 0.241 | 0.613 | 0.197 | 0.872 | 0.709 | 0.556 | 0.603 | 0.394 | 0.582 | 0.221 | 0.454 | -0.0462 | -0.0393 | -0.0133 | 0.0438 | 0.0679 | -0.0245 |  |
| CN(C)CCCOc1ccc(-c2ccc3ncc4c(c3c2)n(C2CCOCC2)c(=O)n4C)cn1 [AZD0156] + O=C(c1cc(Cc2n[nH]c(=O)c3ccccc23)ccc1F)N1CCN(C(=O)C2CC2)CC1 [Olaparib] (first compound max 3 µM, partner max 3 µM) | 0.481 | 0.544 | 0.223 | 0.0443 | 0.194 | 0.297 | 0.306 | 0.195 | 0.193 | 0.319 | 0.131 | 0.256 |  | 0.026 | 0.0954 | -0.0489 | 0.147 | 0.115 | 0.0036 | 0.0152 |
| C=CCn1c(=O)c2cnc(Nc3ccc(N4CCN(C)CC4)cc3)nc2n1-c1cccc(C(C)(C)O)n1 [AZD1775] + C1CN(CCC1(C(=O)N[C@@H](CCO)C2=CC=C(C=C2)Cl)N)C3=NC=NC4=C3C=CN4 [Capivasertib] (first compound max 3 µM, partner max 3 µM) | 0.922 | 1 | 0.655 |  | 0.494 | 0.748 | 0.712 | 0.771 | 0.858 | 0.707 | 0.939 | 0.572 |  | -0.0259 | -0.0268 | -0.0226 | 0.0514 | -0.0648 | -0.0109 | -0.0306 |
| CN(CCO)CC[C@H](CSc1ccccc1)Nc1ccc(S(=O)(=O)NC(=O)c2ccc(N3CCC([C@@H](O)c4ccccc4-c4ccc(Cl)cc4)CC3)cc2)cc1S(=O)(=O)C(F)(F)F [AZD4320] + CN(C)CCCOc1ccc(-c2ccc3ncc4c(c3c2)n(C2CCOCC2)c(=O)n4C)cn1 [AZD0156] (first compound max 1 µM, 7x7, partner max 1 µM) | 0.336 | 0.608 |  | 0.0958 | 0.143 | 0.108 | 0.481 | 0.0706 | 0.288 | 0.734 | 0.258 | 0.224 | 0.636 | -0.0411 | 0.0427 | -0.0542 | -0.0683 | -0.0333 | -0.0041 | -0.0341 |
| CN(C)CCCOc1ccc(-c2ccc3ncc4c(c3c2)n(C2CCOCC2)c(=O)n4C)cn1 [AZD0156] + C[C@@H]1COCCN1C2=NC(=NC(=C2)C3(CC3)[S@](=N)(=O)C)C4=C5C=CNC5=NC=C4 [AZD6738] (first compound max 1 µM, 7x7, partner max 10 µM) | 0.939 | 0.926 | 0.658 | 0.534 | 0.315 | 0.804 | 0.913 | 0.674 | 0.683 | 0.783 | 0.799 | 0.229 | 0.581 | -0.0067 |  | -0.0343 | 0.0272 | 0.0348 | -0.0394 | 0.0101 |
| COc1cccc(OCCCN)c1-c1cc(Nc2cnc(C#N)cn2)n[nH]1 [Prexasertib] + C=CCn1c(=O)c2cnc(Nc3ccc(N4CCN(C)CC4)cc3)nc2n1-c1cccc(C(C)(C)O)n1 [AZD1775] (first compound max 1 µM, partner max 1 µM) | 0.995 | 1 | 0.679 | 0.772 | 0.505 | 0.938 | 0.905 | 0.852 | 0.807 | 0.808 | 0.991 | 0.388 | 0.611 | 0.018 |  | -0.0072 | 0.0413 | 0.0708 | 0.0074 | 0.0242 |
| Cc1cc2ncnn2cc1Nc1ncc2c(n1)n(C1CCOCC1)c(=O)n2C [AZD7648] + C=CCn1c(=O)c2cnc(Nc3ccc(N4CCN(C)CC4)cc3)nc2n1-c1cccc(C(C)(C)O)n1 [AZD1775] (first compound max 10 µM, partner max 1 µM) | 0.833 | 0.781 | 0.283 | 0.425 | 0.431 | 0.575 | 0.783 | 0.431 | 0.68 | 0.384 | 0.825 | 0.192 | 0.332 | -0.0409 |  | -0.0057 | 0.0058 | -0.011 | -0.0421 | 0.0011 |
| Cc1cc2ncnn2cc1Nc1ncc2c(n1)n(C1CCOCC1)c(=O)n2C [AZD7648] + CN(C)CCCOc1ccc(-c2ccc3ncc4c(c3c2)n(C2CCOCC2)c(=O)n4C)cn1 [AZD0156] (first compound max 10 µM, 7x7, partner max 1 µM) | 0.409 | 0.239 | 0.141 | 0.253 | 0.133 | 0.213 | 0.163 | 0.164 | 0.311 | 0.211 | 0.247 | 0.183 | 0.325 | -0.0152 |  | 0.0122 | 0.0137 | 0.0303 | -0.0264 | 0.0078 |
| CCN(CCO)CCCOc1ccc2c(Nc3cc(CC(=O)Nc4cccc(F)c4)[nH]n3)ncnc2c1 [AZD2811] + C[C@@H]1COCCN1C2=NC(=NC(=C2)C3(CC3)[S@](=N)(=O)C)C4=C5C=CNC5=NC=C4 [AZD6738] (first compound max 1 µM, 7x7, partner max 10 µM) | 0.841 | 1 | 0.589 | 0.708 | 0.283 | 0.603 | 0.893 | 0.507 | 0.668 | 0.708 | 0.791 | 0.26 | 0.638 | -0.0087 |  | -0.0853 | -0.0939 | 0.0084 | 0.027 | -0.051 |
| CS(=O)(=O)CCNCc1ccc(-c2ccc3ncnc(Nc4ccc(OCc5cccc(F)c5)c(Cl)c4)c3c2)o1 [Lapatinib] + NC1(c2ccc(-c3nc4ccn5c(=O)[nH]nc5c4cc3-c3ccccc3)cc2)CCC1 [MK-2206] (first compound max 10 µM, 7x7, partner max 10 µM) |  |  |  | 0.205 | 0.386 | 0.821 |  |  | 0.946 | 0.843 | 0.418 | 0.113 |  |  | -0.0286 | -0.0273 |  | 0.0221 |  |  |
| Cc1cc2ncnn2cc1Nc1ncc2c(n1)n(C1CCOCC1)c(=O)n2C [AZD7648] + O=C(c1cc(Cc2n[nH]c(=O)c3ccccc23)ccc1F)N1CCN(C(=O)C2CC2)CC1 [Olaparib] (first compound max 10 µM, 7x7, partner max 10 µM) | 0.481 | 0.475 | 0.12 | 0.0108 | 0.257 | 0.219 | 0.525 | 0.0839 | 0.118 | 0.186 | 0.269 | 0.093 | 0.564 | -0.0821 |  | -0.0443 | -0.0399 | -0.0291 | 0.0388 | -0.0246 |
| C=CCn1c(=O)c2cnc(Nc3ccc(N4CCN(C)CC4)cc3)nc2n1-c1cccc(C(C)(C)O)n1 [AZD1775] + O=C(c1cc(Cc2n[nH]c(=O)c3ccccc23)ccc1F)N1CCN(C(=O)C2CC2)CC1 [Olaparib] (first compound max 1 µM, partner max 10 µM) | 0.694 | 0.83 | 0.274 | 0.34 | 0.389 | 0.632 | 0.771 | 0.301 | 0.619 | 0.473 | 0.794 | 0.192 | 0.622 | -0.0396 |  | -0.0597 | -0.0526 | -0.0171 | -0.0271 | -0.0206 |
| CCc1c2c(nc3ccc(O)cc13)-c1cc3c(c(=O)n1C2)COC(=O)[C@]3(O)CC [SN-38] + CN(C)CCCOc1ccc(-c2ccc3ncc4c(c3c2)n(C2CCOCC2)c(=O)n4C)cn1 [AZD0156] (first compound max 0.3 µM, 7x7, partner max 1 µM) | 0.856 | 0.993 | 0.704 | 0.0996 | 0.544 | 0.913 | 0.861 | 0.171 | 0.243 | 0.635 | 0.772 | 0.448 | 0.734 | -0.0533 |  | -0.0338 | 0.0414 | -0.0027 | -0.0221 | -0.0053 |

Reference: the supplement of paper PMC11061612
